# Reference: US20240342292A1, “Compounds for the Degradation of EGFR Kinase” (BeiGene Switzerland GmbH, priority 2021, published 2024)
# Where two headings read alike, the source gives them in different places.
# Legend:
# [1] = amide bond, 15-membered ring
# Del19/T790M/C797S EGFR = assay: EGFR degradation HTRF assay in H1975-clone #28 (DTC) cells; assay type: cell-based; conditions: H1975 # 28 DTC (Del19/T790M/C797S), 16h treatment; for DC50: HTRF; for Dmax (%): maximum percentage of degradation
# Outline: (§1)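 H1975 clones stably overexpressing mutant EGFR by lentivirus, with endogenous EGFR knocked out by sgRNA and homozygosity confirmed by sequencing, were treated 16 h at 37 °C with compounds in 0.2% DMSO medium, 8 doses from 10 uM in 5-fold dilution. Lysates were read by HTRF (665/620 nm); DC50 came from a four-parameter fit.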
# L858R/C797S EGFR = molecular target: T1, L858R/C797S EGFR (Homo sapiens, UniProt P00533, C797S/L858R); assay: EGFR degradation HTRF assay in H1975-clone #8 (LC) cells; assay type: cell-based; conditions: H1975 #8 LC (L858R/C797S), 16h treatment; for DC50: HTRF; for Dmax: NCI-H1975, maximum percentage of degradation
# T1 construct: expressed in transfected cells; host or cells: H1975 clone #8 (lentiviral over-expression, endogenous EGFR knocked out by sgRNA)
# T1 sequence (P00533 25-1210 C797S/L858R): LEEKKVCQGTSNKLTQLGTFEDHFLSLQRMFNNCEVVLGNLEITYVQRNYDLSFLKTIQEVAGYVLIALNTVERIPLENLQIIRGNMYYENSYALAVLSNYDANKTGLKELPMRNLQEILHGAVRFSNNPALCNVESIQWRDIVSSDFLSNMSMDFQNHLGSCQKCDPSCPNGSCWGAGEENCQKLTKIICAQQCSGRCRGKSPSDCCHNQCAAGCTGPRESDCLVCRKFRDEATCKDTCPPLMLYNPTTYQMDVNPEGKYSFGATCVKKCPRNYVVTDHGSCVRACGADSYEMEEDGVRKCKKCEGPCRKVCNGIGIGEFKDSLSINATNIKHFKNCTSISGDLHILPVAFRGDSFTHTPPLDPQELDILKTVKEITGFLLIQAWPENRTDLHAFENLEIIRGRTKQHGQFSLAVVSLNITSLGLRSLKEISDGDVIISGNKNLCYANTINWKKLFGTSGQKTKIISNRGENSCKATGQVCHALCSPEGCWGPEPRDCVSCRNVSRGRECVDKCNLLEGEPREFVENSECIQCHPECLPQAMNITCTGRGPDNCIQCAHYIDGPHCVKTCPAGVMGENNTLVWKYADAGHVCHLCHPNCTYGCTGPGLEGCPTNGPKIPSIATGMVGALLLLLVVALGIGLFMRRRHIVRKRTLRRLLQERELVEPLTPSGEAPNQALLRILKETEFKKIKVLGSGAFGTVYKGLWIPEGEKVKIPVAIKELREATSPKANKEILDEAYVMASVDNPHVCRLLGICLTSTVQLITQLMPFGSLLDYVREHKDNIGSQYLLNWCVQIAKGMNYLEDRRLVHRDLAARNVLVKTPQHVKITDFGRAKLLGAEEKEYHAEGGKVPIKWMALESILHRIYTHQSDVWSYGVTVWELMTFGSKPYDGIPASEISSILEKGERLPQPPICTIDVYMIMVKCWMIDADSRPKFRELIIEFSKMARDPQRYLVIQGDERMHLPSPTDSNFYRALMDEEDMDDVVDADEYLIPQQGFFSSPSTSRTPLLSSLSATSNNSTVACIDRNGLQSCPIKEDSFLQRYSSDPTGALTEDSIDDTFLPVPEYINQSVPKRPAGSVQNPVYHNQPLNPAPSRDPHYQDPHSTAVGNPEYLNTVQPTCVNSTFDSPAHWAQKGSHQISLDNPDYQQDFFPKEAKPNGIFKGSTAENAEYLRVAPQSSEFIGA
# Excerpt: (§2) H1975-clone #28(Del19/T790M/C797S, or abbr: DTC), H1975-clone #23(Del19/C797S, or abbr: DC), H1975-clone #25(L858R/T790M/C797S, or abbr: LTC) and H1975-clone #8 (L858R/C797S, or abbr: LC). EGFR-Del19:T790M/C797S, EGFR-Del19/C797S, EGFR-L858R/T790M/C797S and EGFR-L858R/C797S were stably expressed in H1975 cell lines by lentivirus-mediated over-expression, respectively. The EGFR over-expressed cells then underwent knockout, in which the EGFR targeting sgRNA was designed to only target the endogenous EGFR copies and preserve the exogenous EGFR copies. Followed by the knockout, the edited H1975 cells were seeded in 96 well plates at the concentration of […], cultured for about 2 weeks to allow single clones formation. The formed clones were screened by DNA sequencing and whole exon sequencing analysis for the desired edition. H1975-clone #28, H1975-clone #23, H1975-clone #25 and H1975-clone #8 were finally confirmed as homozygous Del19/T790M/C797S EGFR, Dell9/C797S EGFR, L858R/T790M/C797S EGFR and L858R/C797S EGFR clones, respectively.
# (§3) H1975-#25, H1975-#28, H1975-#23 and H1975-#8 cells are treated with compounds diluted in 0.2% DMSO cell culture medium on day 2, incubate for 16h, 37° C., 5% CO2. the final concentration of compounds in all assay is start with 10 uM, 5-fold dilution, total 8 doses were included.
# (§4) After 16h treatment, add HTRF lysis buffer to each well; seal the plate and incubate 1 hour at room temperature on a plate shaker; Once the cells are lysed, 16 μL of cell lysate are transferred to a PE 384-well HTRF detection plate; 4 μL of pre-mixed HTRF antibodies are added to each well; Cover the plate with a plate sealer, spin 1000 rpm for 1 min, Incubate overnight at room temperature; Read on BMG PheraStar with HTRF protocol (337 nm-665 nm-620 nm).
# (§5) The IC50 (DC50) value of a compound can be obtained by fitting the following equation
# (§6) Y=Bottom+(TOP−Bottom)/(1+((IC50/X)^hillslope))
# (§7) Wherein, X and Y are known values, and IC50, Hillslope, Top and Bottom are the parameters obtained by fitting with software. Y is the inhibition percentage (calculated from the equation), X is the concentration of the compound: IC50 is the concentration of the compound when the 50% inhibition is reached. The smaller the IC50 value is, the stronger the inhibitory ability of the compound is. Vice versa, the higher the IC50 value is, the weaker the ability the inhibitory ability of the compound is: Hillslope represents the slope of the fitted curve, generally around 1*; Bottom represents the minimum value of the curve obtained by data fitting, which is generally 0%±20%; Top represents the maximum value of the curve obtained by data fitting, which is generally 100%±20%. The experimental data were fitted by calculating and analyzing with Dotmatics data analysis software.
# L858R/T790M/C797S EGFR = molecular target: T2, L858R/T790M/C797S EGFR (Homo sapiens, UniProt P00533, C797S/L858R/T790M); assay: EGFR degradation HTRF assay in H1975-clone #25 (LTC) cells; assay type: cell-based; conditions: 16h treatment; for DC50: H1975 # 25-LTC (L858R/T790M/C797S), HTRF; for Dmax: NCI-H1975, H1975 # 25-LTC (L858R/T790M/C797S), maximum percentage of degradation
# T2 construct: expressed in transfected cells; host or cells: H1975 clone #25 (lentiviral over-expression, endogenous EGFR knocked out by sgRNA)
# T2 sequence (P00533 25-1210 T790M/C797S/L858R): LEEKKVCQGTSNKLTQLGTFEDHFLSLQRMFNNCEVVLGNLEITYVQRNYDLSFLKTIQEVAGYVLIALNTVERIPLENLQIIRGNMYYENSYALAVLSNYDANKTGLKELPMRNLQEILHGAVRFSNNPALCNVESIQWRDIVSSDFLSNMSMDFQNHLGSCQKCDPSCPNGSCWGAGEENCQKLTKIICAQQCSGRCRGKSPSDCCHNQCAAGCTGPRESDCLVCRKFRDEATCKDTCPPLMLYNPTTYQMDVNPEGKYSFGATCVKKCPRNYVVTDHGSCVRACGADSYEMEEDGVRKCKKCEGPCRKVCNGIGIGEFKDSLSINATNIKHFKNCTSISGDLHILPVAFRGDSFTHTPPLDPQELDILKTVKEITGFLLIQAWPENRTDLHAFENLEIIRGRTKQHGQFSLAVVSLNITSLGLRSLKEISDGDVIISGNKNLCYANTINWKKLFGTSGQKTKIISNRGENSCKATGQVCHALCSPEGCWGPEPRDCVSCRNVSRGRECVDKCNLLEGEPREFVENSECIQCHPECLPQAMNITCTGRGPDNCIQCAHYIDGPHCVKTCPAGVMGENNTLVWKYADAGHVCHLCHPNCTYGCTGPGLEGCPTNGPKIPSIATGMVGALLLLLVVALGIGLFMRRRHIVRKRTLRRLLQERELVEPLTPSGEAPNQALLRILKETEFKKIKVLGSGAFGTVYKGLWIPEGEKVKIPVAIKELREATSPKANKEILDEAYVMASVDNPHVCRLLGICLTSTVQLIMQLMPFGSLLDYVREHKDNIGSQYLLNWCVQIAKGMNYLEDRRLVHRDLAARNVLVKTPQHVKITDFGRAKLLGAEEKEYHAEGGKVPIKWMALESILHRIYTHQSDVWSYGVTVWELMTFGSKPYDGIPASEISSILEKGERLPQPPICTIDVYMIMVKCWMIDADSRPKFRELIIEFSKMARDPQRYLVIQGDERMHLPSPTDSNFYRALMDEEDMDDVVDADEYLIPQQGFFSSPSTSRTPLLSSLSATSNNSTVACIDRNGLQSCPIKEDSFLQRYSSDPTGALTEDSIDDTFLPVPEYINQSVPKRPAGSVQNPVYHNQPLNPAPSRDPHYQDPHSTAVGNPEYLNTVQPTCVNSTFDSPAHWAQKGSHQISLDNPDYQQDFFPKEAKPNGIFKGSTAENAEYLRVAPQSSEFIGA
# Outline: as §1
# Del19/C797S EGFR = assay: EGFR degradation HTRF assay in H1975-clone #23 (DC) cells; assay type: cell-based; conditions: H1975 #23 DC (Del19/C797S), 16h treatment; for DC50: HTRF; for Dmax (%): maximum percentage of degradation
# Excerpt: as §2, §3, §4, §5, §6, §7
Compound,DC50 (Del19/T790M/C797S EGFR) [nM],Dmax (%) (Del19/T790M/C797S EGFR),DC50 (L858R/T790M/C797S EGFR) [nM],Dmax (L858R/T790M/C797S EGFR) [%],DC50 (Del19/C797S EGFR) [nM],Dmax (%) (Del19/C797S EGFR),further results
Cc1cc2cc(n1)-c1cnn(C)c1OCCC[C@@H](C)Cn1c(nc3ccc(Br)cc31)NC2=O,–,–,–,–,–,–,"ring closure, isolated yield ([1]; from Cc1cc(C(=O)O)cc(-c2cnn(C)c2OCCC[C@@H](C)Cn2c(N)nc3ccc(Br)cc32)n1, TBTU/TEA, DCM, 117.0 mM, 20.0 °C): 82%"
"Cc1cc2cc(n1)-c1cnn(C)c1OCCC[C@@H](C)CN1/C(=N/C2=O)Nc2ccc(CN3CCC4(CC3)CCN(C(=O)[C@@H]3CCN(c5cc(F)c([C@H]6CCC(=O)NC6=O)c(F)c5)C3)CC4)cc21 [Example 9, (R)-3-(2,6-difluoro-4-((R)-3-(9-(((R,E)-1^1,2^6,7-trimethyl-3-oxo-5^2,5^3-dihydro-1^1H,5^1H-11-oxa-4-aza-5(2,1)-benzo[d]imidazola-2(2,4)-pyridina-1(4,5)-pyrazolacycloundecaphane-5^6-yl)methyl)-3,9-diazaspiro[5.5]undecane-3-carbonyl)pyrrolidin-1-yl)phenyl)piperidine-2,6-dione]",1.7,76.4,0.8,90.1,1,82.6,DC50 (L858R/C797S EGFR): 3.2 nM; Dmax (L858R/C797S EGFR): 64.6%
COC(=O)c1cc(C)nc(-c2cnn(C)c2OCC[C@H]2C[C@@H]2Cn2c(=N)[nH]c3ccc(Br)cc32)c1,–,–,–,–,–,–,"ring closure, isolated yield ([1]; the molecule shown is the open-chain precursor, LiHMDS, DMF/THF, 56.7 mM, 25.0 °C): 49.6%"
"Cc1cc2cc(n1)-c1cnn(C)c1OCCC[C@@H](C)CN1/C(=N/C2=O)Nc2ccc(CN3CCC(N4CCN(C(=O)[C@@H]5CCN(c6cc(F)c([C@H]7CCC(=O)NC7=O)c(F)c6)C5)CC4)CC3)cc21 [Example 6, (R)-3-(2,6-difluoro-4-((R)-3-(4-(1-(((R,E)-1^1,2^6,7-trimethyl-3-oxo-5^2,5^3-dihydro-1^1H,5^1H-11-oxa-4-aza-5(2,1)-benzo[d]imidazola-2(2,4)-pyridina-1(4,5)-pyrazolacycloundecaphane-5^6-yl)methyl)piperidin-4-yl)piperazine-1-carbonyl)pyrrolidin-1-yl)phenyl)piperidine-2,6-dione]",0.8,85.7,1.1,89.9,1.7,78.2,DC50 (L858R/C797S EGFR): 3 nM; Dmax (L858R/C797S EGFR): 63.1%
COC(=O)c1cc(C)nc(-c2cnn(C)c2OCCC[C@@H](C)Cn2c(N)nc3ccc(N4CCC5(CC4=O)OCCO5)cc32)c1,–,–,–,–,–,–,"ring closure, isolated yield ([1]; the molecule shown is the open-chain precursor, LiHMDS, DMF/THF, 32.0 mM, 0.0 °C): 54.5%"
"Cc1cc2cc(n1)-c1cnn(C)c1OCCC[C@@H](C)CN1/C(=N/C2=O)Nc2ccc(CN3CCN(C(=O)[C@@H]4CCN(c5cc(F)c([C@H]6CCC(=O)NC6=O)c(F)c5)C4)CC3)cc21 [Example 5, (R)-3-(2,6-difluoro-4-((R)-3-(4-(((R,E)-1^1,2^6,7-trimethyl-3-oxo-5^2,5^3-dihydro-1^1H,5^1H-11-oxa-4-aza-5(2,1)-benzo[d]imidazola-2(2,4)-pyridina-1(4,5)-pyrazolacycloundecaphane-5^6-yl)methyl)piperazine-1-carbonyl)pyrrolidin-1-yl)phenyl)piperidine-2,6-dione]",1.5,72.0,2,83,0.6,67.6,–
"tert-butyl (R,E)-3-oxo-4-(1^1,2^6,7-trimethyl-3-oxo-5^2,5^3-dihydro-1^1H,5^1H-11-oxa-4-aza-5(2,1)-benzo[d]imidazola-2(2,4)-pyridina-1(4,5)-pyrazolacycloundecaphane-5′-yl)piperazine-1-carboxylate",–,–,–,–,–,–,"ring closure, isolated yield ([1]; HATU/DIEA, DCM, 155.0 mM, 25.0 °C): 51.4%"
